From patent US12667559B2, “Dihydronaphthyridinone compound, and preparation method therefor and medical use thereof” (GENFLEET THERAPEUTICS (SHANGHAI) INC., priority 2020, dated 2026)

Test system: U937 cells
Assay: Inhibitory activity against TNF-α induced programmed cell necrosis (U937 cells, CellTiter-Glo)
Assay type: cell-based, human
Conditions: Homo sapiens, U-937, 48 h, U937 cells, human TNF-α and Q-VD-Oph induced necrosis, 48 hours, survival rate; read-out: U937 IC50

Row | SMILES | IC50 [nM]
1 | C[C@@H](c1ccc(F)cc1)n1cc(N2CCc3ncc(-c4cc(C(F)(F)F)c5c(N)ncnn45)cc3C2=O)cn1 (single isomer, unassigned) [Z35-2] | 0.2
2 | CC(=O)Nc1cn2nc(-c3cnc4c(c3)C(=O)N(Cc3cccc(OC(F)(F)F)c3)CC4)ccc2n1 [Z8, N-(6-(5-oxo-6-(3-(trifluoromethoxy)benzyl)-5,6,7,8-tetrahydro-1,6-naphthyridin-3-yl)imidazo[1,2-b]pyridazin-2-yl)acetamide] | 40.3
3 | Nc1nc2cc(-c3cnc4c(c3)C(=O)N(Cc3cc(C(F)(F)F)ccc3F)CC4)ccn2n1 [Z72] | 82
4 | C[C@@](O)(C(=O)N1C[C@@H](F)[C@@H](N2CCc3ncc(-c4ccc5c(N)ncnn45)cc3C2=O)C1)C(F)(F)F [Z31-1] | 7.4
5 | Nc1nc2cc(-c3cnc4c(c3)C(=O)N(Cc3cc(F)ccc3OC(F)(F)F)CC4)ccn2n1 [Z102, 3-(2-amino-[1,2,4]triazolo[1,5-a]pyridyl-7-yl)-6-(5-fluoro-2-(trifluoromethoxy)benzyl)-7,8-dihydro-1,6-naphthyridin-5(6H)-one] | 21.1
6 | O=C(COCc1ccccc1)Nc1cn2nc(-c3cnc4c(c3)C(=O)N(Cc3cc(F)cc(F)c3OC3CCOCC3)CC4)ccc2n1 [Z94, 2-(Benzoxy)-N-(6-(6-(3,5-difluoro-2-((tetrahydro-2H-pyran-4-yl)oxy)benzyl)-5-oxo-5,6,7,8-tetrahydro-1,6-naphthyridin-3-yl)imidazo[1,2-b]pyridazin-2-yl)acetamide] | 2.5
7 | C[C@H](c1ccccc1OC(F)(F)F)N1CCc2ncc(-c3ccn4nc(N)nc4c3)cc2C1=O [Z46-2, (R)-3-(2-amino-[1,2,4]triazolo[1,5-a]pyridyl-7-yl)-6-(1-(2-(trifluoromethoxy)phenyl)ethyl)-7,8-dihydro-1,6-naphthyridin-5(6H)-one] | 986
8 | CCOC(=O)C(=O)Nc1cn2nc(-c3cnc4c(c3)C(=O)N(Cc3cc(F)cc(F)c3OC3CCOCC3)CC4)ccc2n1 [Z96, ethyl 2-((6-(6-(3,5-difluoro-2-((tetrahydro-2H-pyran-4-yl)oxy)benzyl)-5-oxo-5,6,7,8-tetrahydro-1,6-naphthyridin-3-yl)imidazo[1,2-b]pyridazin-2-yl)amino)-2-oxoacetate] | 1.7
9 | C[C@@](O)(C(=O)N1C[C@@H](N2CCc3ncc(-c4ccc5c(N)ncnn45)cc3C2=O)[C@@H](F)C1)C(F)(F)F [Z31, cis-3-(4-aminopyrrolo[2,1-f][1,2,4]triazin-7-yl)-6-(4-fluoro-1-((R)-3,3,3-trifluoro-2-hydroxy-2-methylpropionyl)pyrrolidin-3-yl)-7,8-dihydro-1,6-naphthyridin-5(6H)-one] | 18.2
10 | Cc1c(-c2cnc3c(c2)C(=O)N(Cc2ncccc2OC2CC2)CC3)ccn2nc(N)nc12 [Z98, 3-(2-amino-8-methyl-[1,2,4]triazolo[1,5-a]pyridyl-7-yl)-6-((3-cyclopropoxypyridyl-2-yl)methyl)-7,8-dihydro-1,6-naphthyridin-5(6H)-one] | 417
11 | CC(=O)Nc1cn2nc(-c3cnc4c(c3)C(=O)N(Cc3cc(F)cc(F)c3OC3CCOC3)CC4)ccc2n1 (stereo not shown) [Z3, N-(6-(6-(3,5-difluoro-2-((tetrahydrofuran-3-yl)oxy)benzyl)-5-oxo-5,6,7,8-tetrahydro-1,6-naphthyridin-3-yl)imidazo[1,2-b]pyridazin-2-yl)acetamide] | 1.4
12 | O=C(CO)Nc1cn2nc(-c3cnc4c(c3)C(=O)N(Cc3cc(F)cc(F)c3OC3CCOCC3)CC4)ccc2n1 [Z39, N-(6-(6-(3,5-difluoro-2-((tetrahydro-2H-pyran-4-yl)oxy)benzyl)-5-oxo-5,6,7,8-tetrahydro-1,6-naphthyridin-3-yl)imidazo[1,2-b]pyridazin-2-yl)-2-hydroxyacetamide] | 0.9
13 | Nc1nc2cc(-c3cnc4c(c3)C(=O)N(Cc3cc(F)cc(F)c3OC3CCOCC3)CC4)ccn2n1 [Z70] | 0.4
14 | CC(=O)Nc1cn2nc(-c3cnc4c(c3)C(=O)N(c3cnn(C(C)c5ccc(F)cc5)c3)CC4)ccc2n1 (stereo not shown) [Z1] | 2.8
15 | C[C@@H](c1ccccc1OC(F)(F)F)N1CCc2ncc(-c3ccn4nc(N)nc4c3)cc2C1=O [Z46-1, (S)-3-(2-amino-[1,2,4]triazolo[1,5-a]pyridyl-7-yl)-6-(1-(2-(trifluoromethoxy)phenyl)ethyl)-7,8-dihydro-1,6-naphthyridin-5(6H)-one] | 7.4

Same assay, conditions: U937 cells, human TNF-α and Q-VD-Oph induced necrosis, 48 hours, survival rate; read-out: U937 IC50

Row | SMILES | IC50 [nM]
16 | Cc1cc(-c2cnc3c(c2)C(=O)N([C@@H]2CN(C(=O)[C@@](C)(O)C(F)(F)F)C[C@@H]2F)CC3)n2ncnc(N)c12 (single isomer, unassigned) [Z30-2] | 3.4
17 | C[C@@H](c1ccc(F)cc1)n1cc(N2CCc3ncc(-c4ccn5nc(N)nc5c4)cc3C2=O)cn1 (single isomer, unassigned) [Z73] | 34
18 | Cc1cc(-c2cnc3c(c2)C(=O)N([C@@H]2CN(C(=O)[C@@](C)(O)C(F)(F)F)C[C@@H]2F)CC3)n2ncnc(N)c12 [Z30, Cis-3-(4-amino-5-methylpyrrolo[2,1-f][1,2,4]triazin-7-yl)-6-(4-fluoro-1-((R)-3,3,3-trifluoro-2-hydroxy-2-methylpropionyl)pyrrolidin-3-yl)-7,8-dihydro-1,6-naphthyridin-5(6H)-one] | 9.1
19 | CC(=O)Nc1cn2nc(-c3cnc4c(c3)C(=O)N(Cc3cc(F)ccc3CN3CCOCC3)CC4)ccc2n1 [Z19] | 34.7
20 | CC(c1ccc(F)cc1)n1cc(N2CCc3ncc(-c4ccn5nc(N)nc5c4)cc3C2=O)cn1 (stereo not shown) [Z64] | 2
21 | Nc1nc2cc(-c3cc4c(nc3Cl)CCN(Cc3cc(OC(F)(F)F)ccc3F)C4=O)ccn2n1 [Z56, 3-(2-amino-[1,2,4]triazolo[1,5-a]pyridyl-7-yl)-2-chloro-6-(2-fluoro-5-(trifluoromethoxy)benzyl)-7,8-dihydro-1,6-naphthyridin-5(6H)-one] | 4
22 | C[C@@](O)(C(=O)N1C[C@@H](N2CCc3ncc(-c4cc(C(F)(F)F)c5c(N)ncnn45)cc3C2=O)[C@@H](F)C1)C(F)(F)F (mixture of isomers) [Z27, cis-3-(4-amino-5-(trifluoromethyl)pyrrolo[2,1-f][1,2,4]triazin-7-yl)-6-(4-fluoro-1-((R)-3,3,3-trifluoro-2-hydroxy-2-methylpropionyl)pyrrolidin-3-yl)-7,8-dihydro-1,6-naphthyridin-5(6H)-one] | 6
23 | CC(c1cc(F)ccc1-c1cnn(C)c1)N1CCc2ncc(-c3ccn4nc(N)nc4c3)cc2C1=O (stereo not shown) [Z80, 3-(2-amino-[1,2,4]triazolo[1,5-a]pyridyl-7-yl)-6-(1-(5-fluoro-2-(1-methyl-1H-pyrazol-4-yl)phenyl)ethyl)-7,8-dihydro-1,6-naphthyridin-5(6H)-one] | 19.8

Same assay, conditions: U-937; U937 cells, human TNF-α and Q-VD-Oph induced necrosis, 48 hours, survival rate; read-out: U937 IC50

Row | SMILES | IC50 [nM]
24 | Nc1nc2cc(-c3cnc4c(c3)C(=O)N(Cc3ccccc3OC(F)(F)F)CC4)ccn2n1 [Z44, 3-(2-amino-[1,2,4]triazolo[1,5-a]pyridyl-7-yl)-6-(2-(trifluoromethoxy)benzyl)-7,8-dihydro-1,6-naphthyridin-5(6H)-one] | 42
25 | Nc1nc2ccc(-c3cnc4c(c3)C(=O)N(Cc3cc(OC(F)(F)F)ccc3F)CC4)cc2o1 [Z16, 3-(2-aminobenzo[d]oxazol-6-yl)-6-(2-fluoro-5-(trifluoromethoxy)benzyl)-7,8-dihydro-1,6-naphthyridin-5(6H)-one] | 10.7
26 | CC(=O)Nc1cn2nc(-c3cnc4c(c3)C(=O)N(Cc3cc(F)cc(F)c3OC3CC3)CC4)ccc2n1 [Z20, N-(6-(6-(2-cyclopropoxy-3,5-difluorobenzyl)-5-oxo-5,6,7,8-tetrahydro-1,6-naphthyridin-3-yl)imidazo[1,2-b]pyridazin-2-yl)acetamide] | 4.4
27 | Nc1nc2ccc(-c3cnc4c(c3)C(=O)N(Cc3cc(OC(F)(F)F)ccc3F)CC4)cc2[nH]1 [Z18, 3-(2-amino-1H-benzo[d]imidazol-6-yl)-6-(2-fluoro-5-(trifluoromethoxy)benzyl)-7,8-dihydro-1,6-naphthyridin-5(6H)-one] | 70.2
28 | CC(c1cc(F)ccc1OC(F)(F)F)N1CCc2ncc(-c3ccn4nc(N)nc4c3)cc2C1=O (stereo not shown) [Z55, 3-(2-amino-[1,2,4]triazolo[1,5-a]pyridyl-7-yl)-6-(1-(5-fluoro-2-(trifluoromethoxy)phenyl)ethyl)-7,8-dihydro-1,6-naphthyridin-5(6H)-one] | 8
29 | CC(c1ccccc1OC(F)(F)F)N1CCc2ncc(-c3ccn4nc(N)nc4c3)cc2C1=O (stereo not shown) [Z46, 3-(2-amino-[1,2,4]triazolo[1,5-a]pyridyl-7-yl)-6-(1-(2-(trifluoromethoxy)phenyl)ethyl)-7,8-dihydro-1,6-naphthyridin-5(6H)-one] | 7
30 | Nc1nc2cc(-c3cnc4c(c3)C(=O)N(Cc3cc(OC(F)(F)F)ccc3F)CC4)ccn2n1 [Z48, 3-(2-amino-[1,2,4]triazolo[1,5-a]pyridyl-7-yl)-6-(2-fluoro-5-(trifluoromethoxy)benzyl)-7,8-dihydro-1,6-naphthyridin-5(6H)-one] | 6
31 | Nc1nc2cc(-c3cnc4c(c3)C(=O)N(Cc3cccc(OC(F)(F)F)c3)CC4)ccn2n1 [Z50, 3-(2-amino-[1,2,4]triazolo[1,5-a]pyridyl-7-yl)-6-(3-(trifluoromethoxy)benzyl)-7,8-dihydro-1,6-naphthyridin-5(6H)-one] | 40
